Here are results for 16 molecules from patent US20090036469A1, “2,6-SUBSTITUTED-4-MONOSUBSTITUTED AMINO-PYRIMIDINE AS PROSTAGLANDIN D2 RECEPTOR ANTAGONISTS” (SANOFI-AVENTIS, priority 2006, published 2009).

Structures can show the parent of a compound that is named as a salt.

The assay concerns the target T1, DP receptor (Homo sapiens, UniProt Q13258).
T1 construct: the human cell line LS174T, which expresses the endogenous DP receptor; endogenous in cells; host or cells: LS174T human cell line
T1 sequence (Q13258 1-359): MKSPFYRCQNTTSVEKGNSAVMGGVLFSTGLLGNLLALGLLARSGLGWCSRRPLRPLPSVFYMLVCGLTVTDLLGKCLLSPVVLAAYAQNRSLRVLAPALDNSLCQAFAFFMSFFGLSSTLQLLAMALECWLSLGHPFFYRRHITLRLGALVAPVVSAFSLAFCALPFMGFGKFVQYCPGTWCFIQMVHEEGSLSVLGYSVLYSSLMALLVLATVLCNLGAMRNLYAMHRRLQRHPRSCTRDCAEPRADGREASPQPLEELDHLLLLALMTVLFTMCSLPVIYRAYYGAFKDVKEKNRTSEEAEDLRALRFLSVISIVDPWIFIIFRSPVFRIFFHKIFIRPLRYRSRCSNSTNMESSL
Kind of assay: SPA cAMP assay in human LS174 T cells (human DP functional assay). The class given is cell-based. Conditions: concentration of the compound that produces 50% inhibition in the SPA cAMP assay in human LS174 T cells; PGD2 15 nM final concentration. The text has this:
As used in the examples and preparations that follow, as well as the rest of the application, the terms used therein shall have the meanings indicated: “kg” refers to kilograms, “g” refers to grams, “mg” refers to milligrams, “μg” refers to micrograms, “mol” refers to moles, “mmol” refers to millimoles, “M” refers to molar, “mM” refers to millimolar, “μM” refers to micromolar, “nM” refers to nanomolar, “L” refers to liters, “mL” or “ml” refers to milliliters, “μL” refers to microliters, “° C.” refers to degrees Celsius, “mp” or “m.p.” refers to melting point, “bp” or “b.p.” refers to boiling point, “mm of Hg” refers to pressure in millimeters of mercury, “cm” refers to centimeters, “nm” refers to nanometers, “abs.” refers to absolute, “conc.” refers to concentrated, “c” refers to concentration in g/mL, “rt” refers to room temperature, “TLC” refers to thin layer chromatography, “HPLC” refers to high performance liquid chromatography, “i.p.” refers to intraperitoneally, “i.v.” refers to intravenously, “s”=singlet, “d”=doublet; “t”=triplet; “q”=quartet; “m”=multiplet, “dd”=doublet of doublets; “br”=broad, “LC”=liquid chromatograph, “MS”=mass spectrograph, “ESI/MS”=electrospray ionization/mass spectrograph, “RT”=retention time, “M”=molecular ion, “PSI”=pounds per square inch, “DMSO”=dimethyl sulfoxide, “DMF”=N,N-dimethylformamide, “CDI”=1,1′-carbonyldiimidazole, “DCM” or “CH2Cl2”=dichloromethane, “HCl”=hydrochloric acid, “SPA”=Scintillation Proximity Assay, “ATTC”=American Type Culture Collection, “FBS”=Foetal Bovine Serum, “MEM”=Minimal Essential Medium, “CPM”=Counts Per Minute, “EtOAc”=ethyl acetate, “PBS”=Phosphate Buffered Saline, “TMD”=transmembrane domain, “IBMX”=3-isobutyl-1-methylxanthine, “cAMP”=cyclic adenosine monophosphate, “IUPAC”=International Union of Pure and Applied Chemistry, “MHz”=megahertz, “PEG”=polyethylene glycol, “MeOH”=methanol, “N”=normality, “THF”=tetrahydrofuran, “h”=hours, “min”=minute(s), “MeNH2”=methyl amine, “N2”=nitrogen gas, “O.D.”=outer diameter, “MeCN” or “CH3CN”=acetonitrile, “Et2O”=ethyl ether, “Prep LC”=preparatory “flash” liquid chromatography, “SPE”=solid phase extraction, “K2CO3”=potassium carbonate, “Na2CO3”=sodium carbonate, “pmol”=picomolar, “heptane”=n-heptane, “HMBA-AM” resin=4-hydroxymethylbenzoic acid amino methyl resin, “PdCl2(dppf)2”=1,1′-bis(diphenylphosphino)ferrocene-palladium (II) dichloride DCM complex, “˜”=approximately, and “IC50”=concentration of the compound that produces 50% inhibition in the SPA cAMP assay in human LS174 T cells.
The inhibitory effects of the compounds according to the invention are assessed in a human DP functional assay. A cAMP assay is employed using the human cell line LS174T, which expresses the endogenous DP receptor. The protocol is similar to that described previously (Wright D H, Ford-Hutchinson A W, Chadee K, Metters K M, The human prostanoid DP receptor stimulates mucin secretion in LS174T cells, Br J Pharmacol. 131(8):1537-45 (2000)).
Protocol for SPA cAMP Assay in Human LS174 T Cells
Add 50 μL of […] IBMX into 100 mL PBS to make a final concentration of 100 μM and sonicate at 30° C. for 20 minutes.
Dissolve 1 mg PGD2 (FW, 352.5) in 284 μL DMSO to make 10 mM stock solution and store at […]. Before each assay, it is freshly prepared. Add 3 μL of 10 mM stock solution to 20 mL DMSO, mix it thoroughly, and transfer 10 mL to 40 mL PBS.
Compound dilution is carried out in Biomex 2000 (Beckman) using Method 1_cAMP DP 11 points.
5 μL of each compound from the 10 mM stock compound plates is transferred to the wells of a 96-well plate respectively as below.
Fill the plate with 45 μL of DMSO except column 7 is filled with 28 μL DMSO. Pipette column 1 thoroughly, and transfer 12 μL into column 7 parallel. Perform 1:10 serial dilution from column 1 to column 6 and from column 7 to column 11 by transfer 5 μL to 45 μL DMSO to make following concentrations:
Fill a new 96-well plate with 247.5 μL of compound dilution buffer. […]
Background: Cyclic AMP is a second messenger, typically raised through Gs and lowered through Gi signalling.
For the molecule `COc1nc(NCCc2ccc(Cl)cc2Cl)cc(N2CCCC(C(=O)NS(=O)(=O)C(F)(F)F)C2)n1` (stereo not shown) [Example 11(d), N-(1-{6-[2-(2,4-Dichloro-phenyl)-ethylamino]-2-methoxy-pyrimidin-4-yl}-piperidine-3-carbonyl)-C,C,C-trifluoro-methanesulfonamide], 18 nM corresponded to half-maximal inhibition (IC50).

With `COc1nc(NCCc2ccc(OC(F)(F)F)cc2)cc(N2CCCC(C(C)(C)C(=O)O)C2)n1` (stereo not shown) [Example 2, 2-(1-{2-Methoxy-6-[2-(4-trifluoromethoxy-phenyl)-ethylamino]-pyrimidin-4-yl}-piperidin-3-yl)-2-methyl-propionic acid], 2 nM corresponded to half-maximal inhibition (IC50).

With `COc1nc(NCCc2ccc(Cl)cc2Cl)cc(N2CCCC(CC(=O)O)C2)n1` (stereo not shown) [Example 8, (1-{6-[2-(2,4-Dichloro-phenyl)-ethylamino]-2-methoxy-pyrimidin-4-yl}-piperidin-3-yl)-acetic acid], the IC50 (as a rule, the concentration that gives 50% inhibition) turned out to be 0.5 nM.

`COc1nc(NCCc2ccc(Cl)cc2Cl)cc(N2CCCC(C(=O)NS(C)(=O)=O)C2)n1` (stereo not shown) [Example 11(a), N-(1-{6-[2-(2,4-Dichloro-phenyl)-ethylamino]-2-methoxy-pyrimidin-4-yl}-piperidine-3-carbonyl)-methanesulfonamide]: the IC50 was 1 nM.

For `COc1nc(NCCc2ccc(Cl)cc2Cl)cc(N2CCCC(N)C2)n1` (stereo not shown) [Example 4, [6-(3-Amino-piperidin-1-yl)-2-methoxy-pyrimidin-4-yl]-[2-(2,4-dichloro-phenyl)-ethyl]-amine], the IC50 turned out to be 985 nM.

For the molecule `COc1nc(NCCc2ccc(Cl)cc2Cl)cc(N2CCCC(C(=O)Nc3nnn[nH]3)C2)n1` (stereo not shown) [Example 11(e), 1-{6-[2-(2,4-Dichloro-phenyl)-ethylamino]-2-methoxy-pyrimidin-4-yl}-piperidine-3-carboxylic acid (1H-tetrazol-5-yl)-amide], half-maximal inhibition (IC50) required 4.4 nM.

`COc1nc(NCCc2ccc(Cl)cc2Cl)cc(N2CCCC(C(=O)NS(=O)(=O)N(C)C)C2)n1` (stereo not shown) [Example 11(h), N,N-Dimethylamide-2-sulfonic acid 1-{6-[2-(2,4-dichloro-phenyl)-ethylamino]-2-methoxy-pyrimidin-4-yl}-piperidine-3-carboxamide] showed an IC50 of 14 nM.

As to `COc1nc(NCCc2ccc(Cl)cc2Cl)cc(-c2ccc3c(c2)CC(C(=O)O)O3)n1` (stereo not shown) [Example 13, 5-{6-[2-(2,4-Dichloro-phenyl)-ethylamino]-2-methoxy-pyrimidin-4-yl}-2,3-dihydro-benzofuran-2-carboxylic acid hydrochloride], the IC50 worked out at 2 nM.

As for `COc1nc(NCCc2ccc(Cl)cc2Cl)cc(N2CCC(NC(C)=O)CC2)n1` [Example 5(b), N-(1-{6-[2-(2,4-Dichloro-phenyl)-ethylamino]-2-methoxy-pyrimidin-4-yl}-piperidin-4-yl)-acetamide], the IC50 is 26 nM.

Turning to `COc1nc(NCCc2ccc(Cl)cc2Cl)cc(-c2cccc(C(C)(C)C(=O)N3CCSCC3)c2)n1` [Example 7(c), 2-(3-{6-[2-(2,4-Dichloro-phenyl)-ethylamino]-2-methoxy-pyrimidin-4-yl}-phenyl)-2-methyl-1-thiomorpholin-4-yl-propan-1-one], the IC50 amounted to 383 nM.

Regarding `COc1nc(NCCc2ccc(OC(F)(F)F)cc2)cc(N2CCCC(C(=O)O)C2)n1` (stereo not shown) [Example 9, 1-{2-Methoxy-6-[2-(4-trifluoromethoxy-phenyl)-ethylamino]-pyrimidin-4-yl}-piperidine-3-carboxylic acid], the IC50 was determined as 9 nM.

Take `COc1nc(NCCc2ccc(Cl)cc2Cl)cc(-c2cccc(C(C)(C)C(=O)NS(=O)(=O)C(C)(C)C)c2)n1` [Example 7(a), 2-Methyl-propane-2-sulfonic acid [2-(3-{6-[2-(2,4-dichloro-phenyl)-ethylamino]-2-methoxy-pyrimidin-4-yl}-phenyl)-2-methyl-propionyl]-amide]: 2 nM corresponded to half-maximal inhibition (IC50).

In turn, `COc1nc(NCCc2ccc(Cl)cc2Cl)cc(-c2cc(C(C)(C)O)cc(C(C)(C)O)c2)n1` [Example 3, 2-[3-{6-[2-(2,4-Dichloro-phenyl)-ethylamino]-2-methoxy-pyrimidin-4-yl}-5-(1-hydroxy-1-methyl-ethyl)-phenyl]-propan-2-ol] yielded an IC50 of 730 nM.

Turning to `COc1nc(NCCc2ccc(OC(F)(F)F)cc2)cc(-c2ccc(C(=O)O)s2)n1` [Example 12, 5-{2-Methoxy-6-[2-(4-trifluoromethoxy-phenyl)-ethylamino]-pyrimidin-4-yl}-thiophene-2-carboxylic acid], the IC50 came out at 2 nM.

With `COc1nc(NCCc2ccc(Cl)cc2Cl)cc(N2CCC(C(=O)O)C2)n1` (stereo not shown) [Example 1], the IC50 was found to be 9 nM.

In the case of `COc1nc(NCCc2ccc(OC(F)(F)F)cc2)cc(N2CCCC(C(=O)NS(C)(=O)=O)C2)n1` (stereo not shown) [Example 10, N-(1-{2-Methoxy-6-[2-(4-trifluoromethoxy-phenyl)-ethylamino]-pyrimidin-4-yl}-piperidine-3-carbonyl)-methanesulfonamide], half-maximal inhibition (IC50) was put at 22 nM.
